{"source": "patent US7517849B1", "about": "“Inhibition of ABC transporters by transmembrane domain analogs” (priority 1999, dated 2009)", "key": {"human P-gp": {"biological_target": "T1, human P-gp (Homo sapiens, UniProt P08183)", "T1 construct": "P-gp-expressing KB 8-5 cells were trypsinized; endogenous in cells; host or cells: KB 8-5 cells", "T1 sequence (P08183 whole entry)": "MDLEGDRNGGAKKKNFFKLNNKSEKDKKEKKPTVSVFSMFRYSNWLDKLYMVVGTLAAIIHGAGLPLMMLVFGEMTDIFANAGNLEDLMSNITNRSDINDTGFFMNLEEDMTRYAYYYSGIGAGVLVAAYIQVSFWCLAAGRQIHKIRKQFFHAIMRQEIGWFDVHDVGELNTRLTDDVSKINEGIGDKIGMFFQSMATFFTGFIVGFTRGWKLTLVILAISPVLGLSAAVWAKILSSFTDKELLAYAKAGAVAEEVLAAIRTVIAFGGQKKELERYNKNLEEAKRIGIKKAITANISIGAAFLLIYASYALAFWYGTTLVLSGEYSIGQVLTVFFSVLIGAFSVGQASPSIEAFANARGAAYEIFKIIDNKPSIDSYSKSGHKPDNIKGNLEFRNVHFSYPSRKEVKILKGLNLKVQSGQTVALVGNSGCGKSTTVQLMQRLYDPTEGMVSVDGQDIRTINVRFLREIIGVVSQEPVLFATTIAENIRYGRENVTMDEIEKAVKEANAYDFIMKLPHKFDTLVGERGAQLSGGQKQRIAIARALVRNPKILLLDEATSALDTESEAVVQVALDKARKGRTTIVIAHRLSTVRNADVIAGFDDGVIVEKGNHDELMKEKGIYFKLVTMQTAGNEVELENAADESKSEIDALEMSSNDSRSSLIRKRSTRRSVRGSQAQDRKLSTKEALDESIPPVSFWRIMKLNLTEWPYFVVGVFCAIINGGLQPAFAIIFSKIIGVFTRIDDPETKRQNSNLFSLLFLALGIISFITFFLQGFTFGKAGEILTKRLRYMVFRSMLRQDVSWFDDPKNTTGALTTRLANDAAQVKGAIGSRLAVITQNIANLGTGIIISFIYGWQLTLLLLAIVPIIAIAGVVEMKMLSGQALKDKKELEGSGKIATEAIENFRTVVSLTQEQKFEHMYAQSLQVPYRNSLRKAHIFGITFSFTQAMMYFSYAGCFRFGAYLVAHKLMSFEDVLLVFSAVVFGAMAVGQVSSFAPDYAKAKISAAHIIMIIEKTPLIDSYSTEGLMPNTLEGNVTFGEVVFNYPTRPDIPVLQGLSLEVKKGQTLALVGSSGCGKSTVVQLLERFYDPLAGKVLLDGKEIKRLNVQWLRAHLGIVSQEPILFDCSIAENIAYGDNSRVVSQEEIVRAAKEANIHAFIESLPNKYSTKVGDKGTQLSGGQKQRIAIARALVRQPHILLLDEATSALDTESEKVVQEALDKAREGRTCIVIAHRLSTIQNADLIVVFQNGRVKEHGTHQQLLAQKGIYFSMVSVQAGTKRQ", "assay": "Fluorogenic substrate (rhodamine 123) accumulation/efflux assay by FACS in P-gp-expressing KB 8-5 cells", "format": "cell-based", "description": "The activity of the antagonists was tested in KB 8-5 cells which express human P-gp (described in Hrycyna et al.; Biochemistry 37:13660-73 (1998)). Analyses of P-gp transport activity were conducted by fluorogenic substrate accumulation assays utilizing fluorescence activated cell sorting (FACS) analysis, as described in Dey, S. et al., Biochemistry 38:6630-9 (1999). […] In initial screens, […] stock solutions of TM peptides in DMSO were diluted in medium to give 10-50 μM solutions. Active compounds were then tested at progressively lower concentrations.\nP-gp-expressing KB 8-5 cells were trypsinized, washed with 15 mL Iscove's modified Dulbecco's medium (IMEM), supplemented with 5% fetal bovine serum (FBS), and resuspended in the same medium. […] After the incubation, the cells were pelleted by centrifugation at 200×g and incubated further in their respective rhodamine-free media (+/−TM peptide) for an additional 45 min at 37° C. in the dark. Cells were then pelleted and resuspended in 400 μL of phosphate-buffered saline without Ca+2 or Mg+2 and immediately analyzed by fluorescence activated cell sorting (FACS).\nIncubations of KB 8-5 cells were carried out as described in the previous Example, except that varying concentrations of the analog called TM 6 (see Example 4, supra) were used as the TM polypeptide."}, "[1]": {"test_system": "Human colon cancer cells HCT15", "assay": "Sensitisation of HCT15 cells to adriamycin, sulforhodamine B toxicity assay", "format": "cell-based", "settings": "HCT-15, 96 h, four days, without analog"}, "[2]": {"biological_target": "human P-glycoprotein (product of MDR1 gene) (human, UniProt P08183 1-1280)", "sequence (P08183 whole entry S893A)": "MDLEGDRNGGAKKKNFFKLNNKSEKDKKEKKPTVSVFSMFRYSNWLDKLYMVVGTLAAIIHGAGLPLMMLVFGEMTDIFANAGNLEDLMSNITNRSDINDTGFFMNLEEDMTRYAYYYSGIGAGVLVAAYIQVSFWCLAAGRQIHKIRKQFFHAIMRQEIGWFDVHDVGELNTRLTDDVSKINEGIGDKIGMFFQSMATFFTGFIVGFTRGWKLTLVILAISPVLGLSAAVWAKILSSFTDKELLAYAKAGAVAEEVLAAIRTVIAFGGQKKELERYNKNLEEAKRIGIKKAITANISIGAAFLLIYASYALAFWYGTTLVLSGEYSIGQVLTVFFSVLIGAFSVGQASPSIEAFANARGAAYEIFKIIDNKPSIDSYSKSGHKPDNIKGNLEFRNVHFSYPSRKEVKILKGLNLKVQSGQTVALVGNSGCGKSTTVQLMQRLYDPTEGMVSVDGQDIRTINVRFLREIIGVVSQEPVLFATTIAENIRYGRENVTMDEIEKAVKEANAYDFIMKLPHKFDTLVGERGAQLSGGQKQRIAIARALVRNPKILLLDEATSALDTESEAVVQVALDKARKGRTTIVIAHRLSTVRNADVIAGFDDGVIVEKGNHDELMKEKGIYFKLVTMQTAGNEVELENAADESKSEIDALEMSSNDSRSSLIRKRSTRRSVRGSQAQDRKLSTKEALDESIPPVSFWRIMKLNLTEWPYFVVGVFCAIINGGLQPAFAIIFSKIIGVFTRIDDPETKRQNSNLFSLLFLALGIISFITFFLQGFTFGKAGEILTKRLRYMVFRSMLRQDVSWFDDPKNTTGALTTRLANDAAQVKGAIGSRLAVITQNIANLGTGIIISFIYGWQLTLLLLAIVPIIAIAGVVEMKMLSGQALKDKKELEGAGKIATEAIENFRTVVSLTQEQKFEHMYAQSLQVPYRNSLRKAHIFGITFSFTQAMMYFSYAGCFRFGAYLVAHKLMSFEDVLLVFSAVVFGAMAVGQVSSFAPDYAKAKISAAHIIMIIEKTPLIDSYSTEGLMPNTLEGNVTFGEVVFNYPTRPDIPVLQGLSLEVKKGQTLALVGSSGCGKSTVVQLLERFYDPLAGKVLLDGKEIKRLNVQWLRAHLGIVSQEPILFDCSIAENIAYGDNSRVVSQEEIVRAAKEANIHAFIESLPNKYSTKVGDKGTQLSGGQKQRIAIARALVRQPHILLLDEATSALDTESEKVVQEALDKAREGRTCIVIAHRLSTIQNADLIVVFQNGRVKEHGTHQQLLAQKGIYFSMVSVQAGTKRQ", "assay": "cell-based or functional assay"}}, "note": "Read-outs that look alike come from different tables or passages of the source. Where no end group is shown, it is not given here."}
{"molecule": "DSGEYSIGQVLTVFFSVLIGAFSV [TM peptide 6]", "values": [{"measurement": "inhibition of rhodamine efflux", "setting": "human P-gp; 5 μM TM peptide, KB 8-5 cells, 0.5 μg/mL rhodamine 123, FACS", "value": "inhibited rhodamine efflux"}, {"measurement": "activity as inhibitor of the MDR1 ABC transporter (in words)", "setting": "human P-gp; cells expressing MDR1, efflux of substrates", "value": "most active"}, {"measurement": "inhibitory power compared with cyclosporin A", "setting": "human P-gp; positive control 5 μM cyclosporin A, KB 8-5 cells", "value": "not as powerful an inhibitor as cyclosporin A"}, {"measurement": "dose/response inhibition of P-gp", "setting": "human P-gp; varying concentrations, KB 8-5 cells, rhodamine 123 efflux", "value": "inhibited P-gp in a dose dependent manner"}]}
{"molecule": "LLIYASYALAFWYGTTLVLSGEGSSG-OH [TM5 analog]", "values": [{"measurement": "activity as inhibitor of the MDR1 ABC transporter (in words)", "setting": "human P-gp", "value": "strongest inhibitor of the MDR1 ABC transporter yet tested"}, {"measurement": "inhibition of rhodamine 123 efflux compared with 5 micromolar cyclosporin", "setting": "human P-gp", "value": "same degree of inhibition of rhodamine 123 efflux from MDR1 expressing cells as 5 micromolar cyclosporin"}]}
{"molecule": "COc1cccc2c1C(=O)c1c(O)c3c(c(O)c1C2=O)C[C@@](O)(C(=O)CO)C[C@@H]3O[C@H]1C[C@H](N)[C@H](O)[C@H](C)O1", "note": "[adriamycin]", "values": [{"measurement": "IC50", "setting": "[1]", "value": "150 ± 10", "unit": "nM"}]}
{"molecule": "ISIGAAFLLIYASYALAFWYGTTDD-OH [TM5 Analog 1]", "values": [{"measurement": "activity as inhibitor of the MDR1 ABC transporter (in words)", "setting": "human P-gp", "value": "active"}]}
{"molecule": "DSGEYSIGQVLTVFFSVLIGAFSV", "note": "[TM6 analog of MDR1 (synthetic peptide), Analog 1]", "values": [{"measurement": "IC50 of adriamycin (sulforhodamine B toxicity assay, HCT15 cells) in the presence of 1 µM TM6", "setting": "[2]", "value": 80, "unit": "nM"}]}
